The first assay relates to ABC-1. As to the kind of experiment: relative viability (nuclei count vs DMSO), 5 days (fraction); higher = more cells survive. The following applies: first compound 0.08 µM. In short, it runs like this: (§1)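 Cells from lung cancer lines were seeded into 1536-well plates and, one day later, dosed by pin tool. Treatments were either a single drug or a fixed dose of an anchor drug with five library-drug doses (not always all listed) in √10 steps. After 5 days, nuclei were stained in a one-step fixation (final 0.05% Triton X-100, 1% formaldehyde, 1 ug/ml Hoechst) and counted on 4× images, and relative viability is the treated-to-vehicle nuclei ratio, as the median of duplicate plates.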
Take `CCCCCCCCCCCC1=C(O)C(=O)C=C(O)C1=O` [Embelin] + O=C(CCCCCCC(=O)Nc1ccccc1)NO [Vorinostat] (partner 1 µM): the relative viability was 1.04.
Same read-out and setting: the value for `CCCCCCCCCCCC1=C(O)C(=O)C=C(O)C1=O` [Embelin] + O=C(c1cc(Cc2n[nH]c(=O)c3ccccc23)ccc1F)N1CCN(C(=O)C2CC2)CC1 [Olaparib] (partner 8 µM) was 0.847.
The same measure, in the same setting: next, `CCCCCCCCCCCC1=C(O)C(=O)C=C(O)C1=O` [Embelin] + Cc1cc(Nc2cc(N3CCN(C)CC3)nc(Sc3ccc(NC(=O)C4CC4)cc3)n2)n[nH]1 [Tozasertib] (partner 0.1 µM): 0.189; `CCCCCCCCCCCC1=C(O)C(=O)C=C(O)C1=O` [Embelin] + Nc1ncn([C@H]2C[C@H](O)[C@@H](CO)O2)c(=O)n1 [Decitabine] (partner 2 µM): 1.02.
Same read-out and setting: the value for `CCCCCCCCCCCC1=C(O)C(=O)C=C(O)C1=O` [Embelin] + CC(=O)c1c(C)c2cnc(Nc3ccc(N4CCNCC4)cn3)nc2n(C2CCCC2)c1=O [Palbociclib] (partner 0.5 µM) was 0.752.

The assay is the same for the next values; noted with them: first compound 0.8 µM.
`CCCCCCCCCCCC1=C(O)C(=O)C=C(O)C1=O` [Embelin] + O=C(CCCCCCC(=O)Nc1ccccc1)NO [Vorinostat] (partner 1 µM) showed a relative viability of 1.48.
Same read-out and setting: next, `CCCCCCCCCCCC1=C(O)C(=O)C=C(O)C1=O` [Embelin] + O=C(c1cc(Cc2n[nH]c(=O)c3ccccc23)ccc1F)N1CCN(C(=O)C2CC2)CC1 [Olaparib] (partner 8 µM): 0.988.
Same read-out and setting: the value for `CCCCCCCCCCCC1=C(O)C(=O)C=C(O)C1=O` [Embelin] + Cc1cc(Nc2cc(N3CCN(C)CC3)nc(Sc3ccc(NC(=O)C4CC4)cc3)n2)n[nH]1 [Tozasertib] (partner 0.1 µM) was 0.166.
Still for that read-out and setting: next, `CCCCCCCCCCCC1=C(O)C(=O)C=C(O)C1=O` [Embelin] + Nc1ncn([C@H]2C[C@H](O)[C@@H](CO)O2)c(=O)n1 [Decitabine] (partner 2 µM): 1.11; `CCCCCCCCCCCC1=C(O)C(=O)C=C(O)C1=O` [Embelin] + CC(=O)c1c(C)c2cnc(Nc3ccc(N4CCNCC4)cn3)nc2n(C2CCCC2)c1=O [Palbociclib] (partner 0.5 µM): 0.664.

The same assay, now with this note: first compound 2.53 µM.
Molecule `CCCCCCCCCCCC1=C(O)C(=O)C=C(O)C1=O` [Embelin] + O=C(CCCCCCC(=O)Nc1ccccc1)NO [Vorinostat] (partner 1 µM) had a relative viability of 0.955.
`CCCCCCCCCCCC1=C(O)C(=O)C=C(O)C1=O` [Embelin] + O=C(c1cc(Cc2n[nH]c(=O)c3ccccc23)ccc1F)N1CCN(C(=O)C2CC2)CC1 [Olaparib] (partner 8 µM) gave a relative viability of 0.805.
On the same count and under the same terms, the value for `CCCCCCCCCCCC1=C(O)C(=O)C=C(O)C1=O` [Embelin] + Cc1cc(Nc2cc(N3CCN(C)CC3)nc(Sc3ccc(NC(=O)C4CC4)cc3)n2)n[nH]1 [Tozasertib] (partner 0.1 µM) was 0.181; that for `CCCCCCCCCCCC1=C(O)C(=O)C=C(O)C1=O` [Embelin] + Nc1ncn([C@H]2C[C@H](O)[C@@H](CO)O2)c(=O)n1 [Decitabine] (partner 2 µM) was 1.04; that for `CCCCCCCCCCCC1=C(O)C(=O)C=C(O)C1=O` [Embelin] + CC(=O)c1c(C)c2cnc(Nc3ccc(N4CCNCC4)cn3)nc2n(C2CCCC2)c1=O [Palbociclib] (partner 0.5 µM) was 0.733.

Staying with this assay, now noted: first compound 8 µM.
As for `CCCCCCCCCCCC1=C(O)C(=O)C=C(O)C1=O` [Embelin] + O=C(CCCCCCC(=O)Nc1ccccc1)NO [Vorinostat] (partner 1 µM), the relative viability came out at 0.86.
As to `CCCCCCCCCCCC1=C(O)C(=O)C=C(O)C1=O` [Embelin] + O=C(c1cc(Cc2n[nH]c(=O)c3ccccc23)ccc1F)N1CCN(C(=O)C2CC2)CC1 [Olaparib] (partner 8 µM), the relative viability amounted to 0.871.
Same read-out and setting: the value for `CCCCCCCCCCCC1=C(O)C(=O)C=C(O)C1=O` [Embelin] + Cc1cc(Nc2cc(N3CCN(C)CC3)nc(Sc3ccc(NC(=O)C4CC4)cc3)n2)n[nH]1 [Tozasertib] (partner 0.1 µM) was 0.148.
The molecule `CCCCCCCCCCCC1=C(O)C(=O)C=C(O)C1=O` [Embelin] + Nc1ncn([C@H]2C[C@H](O)[C@@H](CO)O2)c(=O)n1 [Decitabine] (partner 2 µM) displayed a relative viability of 1.12.
Same read-out and setting: the value for `CCCCCCCCCCCC1=C(O)C(=O)C=C(O)C1=O` [Embelin] + CC(=O)c1c(C)c2cnc(Nc3ccc(N4CCNCC4)cn3)nc2n(C2CCCC2)c1=O [Palbociclib] (partner 0.5 µM) was 0.72.

Another assay deals with EMC-BAC-2. The description is as above. The following applies: first compound 0.08 µM. In outline:
as §1
`CCCCCCCCCCCC1=C(O)C(=O)C=C(O)C1=O` [Embelin] + O=C(CCCCCCC(=O)Nc1ccccc1)NO [Vorinostat] (partner 1 µM) displayed a relative viability of 0.344.
Still for that read-out and setting: the value for `CCCCCCCCCCCC1=C(O)C(=O)C=C(O)C1=O` [Embelin] + O=C(c1cc(Cc2n[nH]c(=O)c3ccccc23)ccc1F)N1CCN(C(=O)C2CC2)CC1 [Olaparib] (partner 8 µM) was 0.48; that for `CCCCCCCCCCCC1=C(O)C(=O)C=C(O)C1=O` [Embelin] + Cc1cc(Nc2cc(N3CCN(C)CC3)nc(Sc3ccc(NC(=O)C4CC4)cc3)n2)n[nH]1 [Tozasertib] (partner 0.1 µM) was 0.27.
Same read-out and setting: next, `CCCCCCCCCCCC1=C(O)C(=O)C=C(O)C1=O` [Embelin] + Nc1ncn([C@H]2C[C@H](O)[C@@H](CO)O2)c(=O)n1 [Decitabine] (partner 2 µM): 0.945; `CCCCCCCCCCCC1=C(O)C(=O)C=C(O)C1=O` [Embelin] + CC(=O)c1c(C)c2cnc(Nc3ccc(N4CCNCC4)cn3)nc2n(C2CCCC2)c1=O [Palbociclib] (partner 0.5 µM): 0.511.

Still in this assay, the particulars now being: first compound 0.8 µM.
For `CCCCCCCCCCCC1=C(O)C(=O)C=C(O)C1=O` [Embelin] + O=C(CCCCCCC(=O)Nc1ccccc1)NO [Vorinostat] (partner 1 µM), the relative viability amounted to 0.561.
`CCCCCCCCCCCC1=C(O)C(=O)C=C(O)C1=O` [Embelin] + O=C(c1cc(Cc2n[nH]c(=O)c3ccccc23)ccc1F)N1CCN(C(=O)C2CC2)CC1 [Olaparib] (partner 8 µM) came in with a relative viability of 0.378.
Still for that read-out and setting: next, `CCCCCCCCCCCC1=C(O)C(=O)C=C(O)C1=O` [Embelin] + Cc1cc(Nc2cc(N3CCN(C)CC3)nc(Sc3ccc(NC(=O)C4CC4)cc3)n2)n[nH]1 [Tozasertib] (partner 0.1 µM): 0.318; `CCCCCCCCCCCC1=C(O)C(=O)C=C(O)C1=O` [Embelin] + Nc1ncn([C@H]2C[C@H](O)[C@@H](CO)O2)c(=O)n1 [Decitabine] (partner 2 µM): 1.01; `CCCCCCCCCCCC1=C(O)C(=O)C=C(O)C1=O` [Embelin] + CC(=O)c1c(C)c2cnc(Nc3ccc(N4CCNCC4)cn3)nc2n(C2CCCC2)c1=O [Palbociclib] (partner 0.5 µM): 0.547.

Values taken from the supplement of paper PMC10307832.
